“And” between values parts separate entries of the source, which are not always exact repeats. Equal entries are not always repeated. Blank lines part the entries; values can stand above or below the molecule they belong to.
Key:
[1] = instrument: DT, single field
[2] = instrument: DT, single field, calibrated with Agilent tune mix (Agilent)
[3] = instrument: DT, stepped-field
[4] = instrument: TW, calibrated with phosphatidylcholines (ESI+) and phosphatidylethanolamines (ESI-)
[5] = [M+Na]+; instrument: DT; stepped-field

SMILES: CCCCCCCCCCCCCCCCCCCC(=O)O[C@@H](CO)COC(=O)CCCCCCCCCCC [DG(32:0)]
collision cross section (N2) ([1]; [M+NH4]+): 255.58 Å²

SMILES: CCCCC/C=C\C/C=C\CCCCCCCC(=O)O[C@@H](CO)COC(=O)CCCCCCCCCCCCC [DG(32:2)]
collision cross section (N2) ([1]; [M+NH4]+): 253.01 Å²

SMILES: CCCCC/C=C\C/C=C\CCCCCCCCCCCC(=O)O[C@@H](CO)COC(=O)CCCCCCCCCCCCC [DG(36:2)]
collision cross section (N2) ([1]; [M+NH4]+): 266.09 Å²

SMILES: CCCCCCCCCCCCCCCCCCCCCCC=CCC(=O)OC[C@H](CO)OC(=O)CC=CCCCCCCCCCCCCCCCCCCCCCC [DG(52:2)]
collision cross section (N2) ([1]; [M+NH4]+): 319.62 Å²

SMILES: CCCCCCCCCCCCCCCCCCC(=O)O[C@H](COC(=O)CCCCCCCCCCC)COP(=O)([O-])OCC[N+](C)(C)C [PC(31:0)]
collision cross section (N2) ([1]; [M+H]+): 278.69 Å²

SMILES: CCC/C=C\C/C=C\CCCCCCCCCC(=O)O[C@H](COC(=O)CCCCCCCCCCCCC)COP(=O)([O-])OCC[N+](C)(C)C [PC(32:2)]
collision cross section (N2) ([2]; [M+H]+): 276.8 Å²
collision cross section (N2) ([3]; [M+K]+): 289.2 Å²
collision cross section (N2) ([4]; [M+H]+): 274 Å²

SMILES: CCCCCCCCC/C=C\CCCCCCCC(=O)O[C@H](COC(=O)CCCCCCCCCCCC)COP(=O)(O)OCCN [PE(32:1)]
collision cross section (N2) ([2]; [M+H]+): 267.2 Å²
collision cross section (N2) ([2]; [M+Na]+): 272 Å²
collision cross section (N2) ([2]; [M-H]-): 256.6 Å²
collision cross section (N2) ([3]; [M+Na]+): 274.1 Å²

SMILES: CCCCCCCCCC/C=C\CCCCCCCCCC(=O)O[C@H](COC(=O)CCCCCCCCCCC)COP(=O)(O)OCCN [PE(34:1)]
collision cross section (N2) ([2]; [M+H]+): 274.7 Å²
collision cross section (N2) ([2]; [M+Na]+): 281.2 Å²
collision cross section (N2) ([2]; [M-H]-): 263.5 Å²
collision cross section (N2) ([3]; [M+Na]+): 281.3 Å²
collision cross section (N2) ([4]; [M+H]+): 272.8 Å²
collision cross section (N2) ([4]; [M-H]-): 262.8 Å²

SMILES: CCCCC/C=C\C/C=C\CCCCCCCCCCCC(=O)O[C@H](COC(=O)CCCCCCCCCCCC)COP(=O)(O)OCCN [PE(35:2)]
collision cross section (N2) ([2]; [M+H]+): 275 Å²
collision cross section (N2) ([2]; [M-H]-): 264.9 Å²
collision cross section (N2) ([3]; [M+K]+): 282.5 Å²
collision cross section (N2) ([3]; [M+Na]+): 281.3 Å²

SMILES: CCCCC/C=C\C/C=C\CCCCCCCC(=O)O[C@H](COCCCCCCCCCCCCCCCCCC)COP(=O)(O)OCCN [PE(o36:2)]
collision cross section (N2) ([3]; [M+Na]+): 287.3 Å²

SMILES: CC/C=C\C/C=C\C/C=C\C/C=C\C/C=C\C/C=C\CCC(=O)OC[C@H](COP(=O)(O)OC[C@H](N)C(=O)O)OC(=O)CCC/C=C\C/C=C\C/C=C\C/C=C\C/C=C\CC [PS(42:11)]
collision cross section (N2) ([3]; [M+Na]+): 294.2 Å²

SMILES: CC=CCC=CCC=CCC=CCC=CCC=CCC=CCC=CCC(=O)OC[C@H](COP(=O)(O)OC[C@H](N)C(=O)O)OC(=O)CC=CCC=CCC=CCC=CCC=CCC=CCC=CCC=CC [PS(52:16)]
collision cross section (N2) ([3]; [M+Na]+): 322.2 Å²

SMILES: NCCCC[C@H](NC(=O)[C@H](CC(N)=O)NC(=O)[C@H](CCC(=O)O)NC(=O)[C@@H](N)CCC(N)=O)C(=O)O [QENK]
collision cross section (N2) ([3]; [M+H]+): 219 Å²

SMILES: N=C(N)NCCC[C@H](NC(=O)CNC(=O)[C@H](CC(=O)O)NC(=O)[C@@H](N)CO)C(=O)NCC(=O)O [SDGRG]
collision cross section (N2) ([3]; [M+H]+): 204.6 Å²
collision cross section (N2) ([3]; [M+K]+): 205.4 Å²
collision cross section (N2) ([3]; [M+Na]+): 203.5 Å²

SMILES: CCCCCCCCCCCCC=CC[C@@H](O)[C@H](COP(=O)([O-])OCC[N+](C)(C)C)NC(=O)CC=CCCCCCCCCCCCCCC [SM(36:2)]
collision cross section (N2) ([2]; [M+H]+): 286.1 Å²
collision cross section (N2) ([3]; [M+Na]+): 290.9 Å²

SMILES: CCCCCCCCCCCCCCCCCCCCCC(=O)N[C@@H](COP(=O)([O-])OCC[N+](C)(C)C)[C@H](O)CCCCCCCCCCCCCCC [SM(40:0)]
collision cross section (N2) ([3]; [M+Na]+): 305.7 Å²

SMILES: CCCCCCCCCCCCC=CC[C@@H](O)[C@H](COP(=O)([O-])OCC[N+](C)(C)C)NC(=O)CC=CCCCCCCCCCCCCCCCCCCC [SM(41:2)]
collision cross section (N2) ([3]; [M+Na]+): 303.9 Å²

SMILES: CCCCCCCCCCCCC=CC[C@@H](O)[C@H](COP(=O)([O-])OCC[N+](C)(C)C)NC(=O)CC=CCC=CCCCCCCCCCCCCCCCCC [SM(42:3)]
collision cross section (N2) ([2]; [M+HCOO]-): 299.5 Å²
collision cross section (N2) ([2]; [M+H]+): 302 Å²
collision cross section (N2) ([3]; [M+Na]+): 305.6 Å²

SMILES: CCCCCCCCCCCCC=CC[C@@H](O)[C@H](COP(=O)([O-])OCC[N+](C)(C)C)NC(=O)CC=CCCCCCCCCCCCCCCCCCCCCC [SM(43:2)]
collision cross section (N2) ([3]; [M+Na]+): 311.5 Å²

SMILES: CCCCCCCCCCCCC=CC[C@@H](O)[C@H](COP(=O)([O-])OCC[N+](C)(C)C)NC(=O)CC=CCC=CCCCCCCCCCCCCCCCCCC [SM(43:3)]
collision cross section (N2) ([3]; [M+Na]+): 309.6 Å²

SMILES: OC[C@@H](O)[C@@H](O)[C@H](O)[C@@H](O)CO [Sorbitol]
collision cross section (N2) ([3]; [M+Na]+): 139.4 Å²

SMILES: CCCC[N+](CCCC)(CCCC)CCCC [TAA4]
collision cross section (N2) ([3]; [M]+): 166.6 Å²

SMILES: CCCCC[N+](CCCCC)(CCCCC)CCCCC [TAA5]
collision cross section (N2) ([3]; [M]+): 190.1 Å²

SMILES: CCCCCCCCCCCC[N+](CCCCCCCCCCCC)(CCCCCCCCCCCC)CCCCCCCCCCCC [TAA12]
collision cross section (N2) ([3]; [M]+): 319 Å²

SMILES: CC(C)[C@H](N)C(=O)N[C@@H](CCC(=O)O)C(=O)N[C@@H](CC(=O)O)C(=O)N[C@H](C(=O)N[C@@H](CC(=O)O)C(=O)N[C@@H](CCCNC(=N)N)C(=O)O)C(C)C [VEDVDR]
collision cross section (N2) ([3]; [M+H]+): 256.6 Å²

SMILES: CCC(C)[C@H](NC(=O)CNC(=O)[C@H](CC(C)C)NC(=O)[C@@H](N)C(C)C)C(=O)N[C@@H](CC(=O)O)C(=O)NCC(=O)NCC(=O)N[C@@H](CCC(=O)O)C(=O)NCC(=O)N[C@@H](CCCCN)C(=O)O (stereo partly specified) [VLGIDGGEGK]
collision cross section (N2) ([3]; [M+H]+): 291.2 Å²

SMILES: CSCC[C@H](NC(=O)[C@@H](N)Cc1c[nH]c2ccccc12)C(=O)NCC(=O)N[C@@H](CCCCN)C(=O)O [WMGK]
collision cross section (N2) ([3]; [M+H]+): 220.1 Å²

SMILES: CCC(C)[C@H](NC(=O)[C@H](CCC(=O)O)NC(=O)[C@H](Cc1ccc(O)cc1)NC(=O)[C@H](CC(C)C)NC(=O)[C@@H](N)Cc1ccc(O)cc1)C(=O)N[C@@H](C)C(=O)N[C@@H](CCCNC(=N)N)C(=O)O (stereo partly specified) [YLYEIAR]
collision cross section (N2) ([3]; [M+H]+): 305 Å²

SMILES: CC(C)[C@H](NC(=O)[C@@H](N)Cc1ccc(O)cc1)C(=O)N[C@@H](CCCNC(=N)N)C(=O)O [YVR]
collision cross section (N2) ([3]; [M+H]+): 207 Å²

Next, values leading:

collision cross section (N2) ([1]; [M+NH4]+): 252.3 Å²
SMILES: CC/C=C\C/C=C\C/C=C\C/C=C\C/C=C\C/C=C\CCC(=O)O[C@@H](CO)COC(=O)CCCCCCC/C=C\CCCC [DG(36:7)]

collision cross section (N2) ([1]; [M+NH4]+): 256.98 Å²
SMILES: CC/C=C\C/C=C\C/C=C\C/C=C\C/C=C\CCCC(=O)O[C@@H](CO)COC(=O)CCCCCCC/C=C\C/C=C\CCCC [DG(37:7)]

collision cross section (N2) ([1]; [M+NH4]+): 266.8 Å² and 270.46 Å² and 267.84 Å²
SMILES: CCCCC/C=C\C/C=C\C/C=C\C/C=C\CCCCCC(=O)O[C@@H](CO)COC(=O)CCCC/C=C\C/C=C\C/C=C\CCCCC [DG(40:7)]

collision cross section (N2) ([2]; [M+H]+): 272.7 Å²
collision cross section (N2) ([2]; [M+Na]+): 277.6 Å²
collision cross section (N2) ([2]; [M-H]-): 262 Å²
collision cross section (N2) ([3]; [M+Na]+): 278.3 Å²
collision cross section (N2) ([4]; [M+H]+): 269.9 Å²
SMILES: CCCCC/C=C\C/C=C\CCCCCCCCCC(=O)O[C@H](COC(=O)CCCCCCCCCCCCC)COP(=O)(O)OCCN [PE(34:2)]

collision cross section (N2) ([2]; [M+H]+): 270.9 Å²
collision cross section (N2) ([2]; [M-H]-): 260.2 Å²
collision cross section (N2) ([3]; [M+Na]+): 276.1 Å²
SMILES: CCCC/C=C\CCCCCCCC(=O)OC[C@H](COP(=O)(O)OCCN)OC(=O)CCCCCCCCC/C=C\C/C=C\CCCCC [PE(34:3)]

collision cross section (N2) ([3]; [M+Na]+): 273.6 Å²
SMILES: CCCC/C=C\CCCCCCCC(=O)OC[C@H](COP(=O)(O)OCCN)OC(=O)CCCCCC/C=C\C/C=C\C/C=C\CCCCC [PE(34:4)]

collision cross section (N2) ([3]; [M+K]+): 284.7 Å²
SMILES: CCCCC/C=C\C/C=C\C/C=C\CCCCC(=O)OC[C@H](COP(=O)(O)OCCN)OC(=O)CCCCCCC/C=C\CCCCCCCCC [PE(37:4)]

collision cross section (N2) ([3]; [M+K]+): 287 Å²
collision cross section (N2) ([3]; [M+Na]+): 283.7 Å²
SMILES: CCCCC/C=C\C/C=C\C/C=C\C/C=C\CCCC(=O)O[C@H](COC(=O)CCCC/C=C\C/C=C\C/C=C\CCCCC)COP(=O)(O)OCCN [PE(38:7)]

collision cross section (N2) ([2]; [M+H]+): 287.1 Å²
collision cross section (N2) ([2]; [M-H]-): 277.5 Å²
collision cross section (N2) ([3]; [M+Na]+): 294.8 Å²
collision cross section (N2) ([4]; [M+H]+): 284.8 Å²
collision cross section (N2) ([4]; [M-H]-): 276.2 Å²
SMILES: CCCCC/C=C\C/C=C\C/C=C\CCCCC(=O)OC[C@H](COP(=O)(O)OCCN)OC(=O)CCCCCCCCCCC/C=C\C/C=C\CCCCC [PE(40:5)]

collision cross section (N2) ([2]; [M+Na]+): 283.1 Å²
collision cross section (N2) ([3]; [M+Na]+): 286.6 Å²
SMILES: CC/C=C\C/C=C\C/C=C\C/C=C\C/C=C\CCCC(=O)OC[C@H](COP(=O)(O)OCCN)OC(=O)CCC/C=C\C/C=C\C/C=C\C/C=C\CCCCC [PE(40:9)]

collision cross section (N2) ([3]; [M+Na]+): 297.3 Å²
collision cross section (N2) ([4]; [M+H]+): 290 Å²
SMILES: CC/C=C\C/C=C\C/C=C\C/C=C\C/C=C\C/C=C\CCC(=O)O[C@H](COC(=O)CCCCCCCCC/C=C\C/C=C\CCCCC)COP(=O)(O)OCCN [PE(42:8)]

collision cross section (N2) ([3]; [M+Na]+): 293.6 Å²
SMILES: CC/C=C\C/C=C\C/C=C\C/C=C\CCCCC(=O)OC[C@H](COP(=O)(O)OC[C@H](N)C(=O)O)OC(=O)CCCCC/C=C\C/C=C\C/C=C\C/C=C\CCCCC [PS(40:8)]

collision cross section (N2) ([3]; [M+Na]+): 301.3 Å²
SMILES: CCCCC/C=C\C/C=C\C/C=C\C/C=C\CCCCCC(=O)OC[C@H](COP(=O)(O)OC[C@H](N)C(=O)O)OC(=O)CCC/C=C\C/C=C\C/C=C\C/C=C\CCCCC [PS(42:8)]

collision cross section (N2) ([3]; [M+Na]+): 297.1 Å²
SMILES: CC/C=C\C/C=C\C/C=C\C/C=C\C/C=C\C/C=C\CCC(=O)O[C@H](COC(=O)CCC/C=C\C/C=C\C/C=C\C/C=C\CCCCC)COP(=O)(O)OC[C@H](N)C(=O)O [PS(42:10)]

collision cross section (N2) [5]: 296.88 Å²
collision cross section (N2) ([3]; [M+Na]+): 303.5 Å²
SMILES: CC/C=C\C/C=C\C/C=C\C/C=C\C/C=C\C/C=C\CCC(=O)OC[C@H](COP(=O)(O)OC[C@H](N)C(=O)O)OC(=O)CCCCC/C=C\C/C=C\C/C=C\C/C=C\CCCCC [PS(44:10)]

— the C3SDB collision cross section collection
